{"source": "PubChem BioAssay AID1745844", "about": "(Carcinogenic Potency Database (CPDB), 2022)", "system": "rodent lifetime carcinogenesis bioassay, tumor incidence TD50", "assay": "chronic cancer bioassays in animals – CPDB, compiled studies (AID 1745844)", "conditions": "mouse, strain B6C3F1, inhaled", "data": [{"smiles": "C=CC=C", "values": [{"measurement": "TD50", "setting": "females, site: Harderian gland, lesion: adenocarcinoma + adenoma + adenoma, bilateral, dosed 83 weeks, study length 104 weeks", "value": 26.2, "unit": "mg/kg/day"}, {"measurement": "TD50", "setting": "females, site: Harderian gland, lesion: adenoma + adenoma, bilateral, dosed 83 weeks, study length 104 weeks", "value": 26.2, "unit": "mg/kg/day"}, {"measurement": "TD50", "setting": "females, site: Zymbal's gland, lesion: adenoma + carcinoma, dosed 83 weeks, study length 104 weeks", "value": 3540, "unit": "mg/kg/day"}, {"measurement": "TD50", "setting": "females, site: all sites + forestomach + Harderian gland + heart + liver + lung + mammary gland + ovary, lesion: histiocytic sarcoma + malignant lymphoma, mixed type + malignant lymphoma, lymphocytic type + malignant lymphoma, undifferenti, dosed 83 weeks, study length 104 weeks", "value": 6.79, "unit": "mg/kg/day"}, {"measurement": "TD50", "setting": "females, site: all sites + forestomach + heart + liver + lung + mammary gland + ovary, lesion: malignant lymphoma, NOS + squamous-cell papilloma + hemangiosarcoma + hepatocellular adenoma + hepatocellular carcinoma + alveolar, dosed 61 weeks, study length 61 weeks", "value": 53, "unit": "mg/kg/day"}, {"measurement": "TD50", "setting": "females, site: all sites, lesion: hemangioma + hemangiosarcoma, dosed 83 weeks, study length 104 weeks", "value": 35, "unit": "mg/kg/day"}, {"measurement": "TD50", "setting": "females, site: all sites, lesion: hemangiosarcoma, dosed 83 weeks, study length 104 weeks", "value": 44.2, "unit": "mg/kg/day"}, {"measurement": "TD50", "setting": "females, site: all sites, lesion: histiocytic sarcoma + malignant lymphoma, mixed type + malignant lymphoma, lymphocytic type + malignant lymphoma, undifferenti, dosed 83 weeks, study length 104 weeks", "value": 27.4, "unit": "mg/kg/day"}, {"measurement": "TD50", "setting": "females, site: all sites, lesion: histiocytic sarcoma, dosed 83 weeks, study length 104 weeks", "value": 125, "unit": "mg/kg/day"}, {"measurement": "TD50", "setting": "females, site: all sites, lesion: malignant lymphoma, NOS, dosed 61 weeks, study length 61 weeks", "value": 270, "unit": "mg/kg/day"}, {"measurement": "TD50", "setting": "females, site: all sites, lesion: malignant lymphoma, lymphocytic type, dosed 83 weeks, study length 104 weeks", "value": 74.9, "unit": "mg/kg/day"}, {"measurement": "TD50", "setting": "females, site: all sites, lesion: malignant lymphoma, mixed type + malignant lymphoma, lymphocytic type + malignant lymphoma, undifferentiated type + malignant, dosed 83 weeks, study length 104 weeks", "value": 35.2, "unit": "mg/kg/day"}, {"measurement": "TD50", "setting": "females, site: any site (literature study), lesion: several types, types named in the paper, dosed 61 weeks, study length 61 weeks", "value": 41.5, "unit": "mg/kg/day"}, {"measurement": "TD50", "setting": "females, site: any site (literature study), lesion: several types, types named in the paper, dosed 83 weeks, study length 104 weeks", "value": 6.28, "unit": "mg/kg/day"}, {"measurement": "TD50", "setting": "females, site: forestomach, lesion: papilloma, NOS + squamous-cell carcinoma + squamous-cell papilloma, dosed 61 weeks, study length 61 weeks", "value": 462, "unit": "mg/kg/day"}, {"measurement": "TD50", "setting": "females, site: forestomach, lesion: papilloma, NOS + squamous-cell papilloma, dosed 61 weeks, study length 61 weeks", "value": 483, "unit": "mg/kg/day"}, {"measurement": "TD50", "setting": "females, site: forestomach, lesion: squamous-cell carcinoma + squamous-cell papilloma, dosed 61 weeks, study length 61 weeks", "value": 396, "unit": "mg/kg/day"}, {"measurement": "TD50", "setting": "females, site: forestomach, lesion: squamous-cell carcinoma + squamous-cell papilloma, dosed 83 weeks, study length 104 weeks", "value": 83.9, "unit": "mg/kg/day"}, {"measurement": "TD50", "setting": "females, site: forestomach, lesion: squamous-cell carcinoma, dosed 83 weeks, study length 104 weeks", "value": 257, "unit": "mg/kg/day"}, {"measurement": "TD50", "setting": "females, site: forestomach, lesion: squamous-cell papilloma, dosed 61 weeks, study length 61 weeks", "value": 461, "unit": "mg/kg/day"}, {"measurement": "TD50", "setting": "females, site: forestomach, lesion: squamous-cell papilloma, dosed 83 weeks, study length 104 weeks", "value": 126, "unit": "mg/kg/day"}, {"measurement": "TD50", "setting": "females, site: heart + liver + subcutaneous tissue, lesion: hemangiosarcoma, dosed 61 weeks, study length 61 weeks", "value": 147, "unit": "mg/kg/day"}, {"measurement": "TD50", "setting": "females, site: heart, lesion: hemangiosarcoma, dosed 61 weeks, study length 61 weeks", "value": 283, "unit": "mg/kg/day"}, {"measurement": "TD50", "setting": "females, site: heart, lesion: hemangiosarcoma, dosed 83 weeks, study length 104 weeks", "value": 104, "unit": "mg/kg/day"}, {"measurement": "TD50", "setting": "females, site: kidney, lesion: tubule adenoma, dosed 83 weeks, study length 104 weeks", "value": 1060, "unit": "mg/kg/day"}, {"measurement": "TD50", "setting": "females, site: liver, lesion: hepatocellular adenoma + hepatocellular carcinoma + neoplastic nodule, dosed 61 weeks, study length 61 weeks", "value": 1170, "unit": "mg/kg/day"}, {"measurement": "TD50", "setting": "females, site: liver, lesion: hepatocellular adenoma + hepatocellular carcinoma + neoplastic nodule, dosed 83 weeks, study length 104 weeks", "value": 22.8, "unit": "mg/kg/day"}, {"measurement": "TD50", "setting": "females, site: liver, lesion: hepatocellular adenoma + hepatocellular carcinoma, dosed 61 weeks, study length 61 weeks", "value": 1170, "unit": "mg/kg/day"}, {"measurement": "TD50", "setting": "females, site: liver, lesion: hepatocellular adenoma + hepatocellular carcinoma, dosed 83 weeks, study length 104 weeks", "value": 22.8, "unit": "mg/kg/day"}, {"measurement": "TD50", "setting": "females, site: liver, lesion: hepatocellular adenoma, dosed 61 weeks, study length 61 weeks", "value": 1590, "unit": "mg/kg/day"}, {"measurement": "TD50", "setting": "females, site: liver, lesion: hepatocellular adenoma, dosed 83 weeks, study length 104 weeks", "value": 28.5, "unit": "mg/kg/day"}, {"measurement": "TD50", "setting": "females, site: liver, lesion: hepatocellular carcinoma, dosed 83 weeks, study length 104 weeks", "value": 50.5, "unit": "mg/kg/day"}, {"measurement": "TD50", "setting": "females, site: lung, lesion: alveolar/bronchiolar adenoma + alveolar/bronchiolar carcinoma + adenocarcinoma, dosed 83 weeks, study length 104 weeks", "value": 12.4, "unit": "mg/kg/day"}, {"measurement": "TD50", "setting": "females, site: lung, lesion: alveolar/bronchiolar adenoma + alveolar/bronchiolar carcinoma, dosed 61 weeks, study length 61 weeks", "value": 203, "unit": "mg/kg/day"}, {"measurement": "TD50", "setting": "females, site: lung, lesion: alveolar/bronchiolar adenoma + alveolar/bronchiolar carcinoma, dosed 83 weeks, study length 104 weeks", "value": 13.8, "unit": "mg/kg/day"}, {"measurement": "TD50", "setting": "females, site: lung, lesion: alveolar/bronchiolar adenoma, dosed 61 weeks, study length 61 weeks", "value": 259, "unit": "mg/kg/day"}, {"measurement": "TD50", "setting": "females, site: lung, lesion: alveolar/bronchiolar adenoma, dosed 83 weeks, study length 104 weeks", "value": 20.3, "unit": "mg/kg/day"}, {"measurement": "TD50", "setting": "females, site: lung, lesion: alveolar/bronchiolar carcinoma + adenocarcinoma, dosed 83 weeks, study length 104 weeks", "value": 23.9, "unit": "mg/kg/day"}, {"measurement": "TD50", "setting": "females, site: lung, lesion: alveolar/bronchiolar carcinoma, dosed 61 weeks, study length 61 weeks", "value": 227, "unit": "mg/kg/day"}, {"measurement": "TD50", "setting": "females, site: mammary gland, lesion: acinar-cell carcinoma, dosed 61 weeks, study length 61 weeks", "value": 1030, "unit": "mg/kg/day"}, {"measurement": "TD50", "setting": "females, site: mammary gland, lesion: adenoacanthoma, dosed 83 weeks, study length 104 weeks", "value": 87.7, "unit": "mg/kg/day"}, {"measurement": "TD50", "setting": "females, site: mammary gland, lesion: adenocarcinoma + adenoacanthoma + mixed tumor, malignant, dosed 83 weeks, study length 104 weeks", "value": 47.4, "unit": "mg/kg/day"}, {"measurement": "TD50", "setting": "females, site: mammary gland, lesion: adenocarcinoma, dosed 83 weeks, study length 104 weeks", "value": 93.3, "unit": "mg/kg/day"}, {"measurement": "TD50", "setting": "females, site: mammary gland, lesion: mixed tumor, malignant, dosed 83 weeks, study length 104 weeks", "value": 2710, "unit": "mg/kg/day"}, {"measurement": "TD50", "setting": "females, site: ovary, lesion: adenoma + mixed tumor, benign, dosed 83 weeks, study length 104 weeks", "value": 78.9, "unit": "mg/kg/day"}, {"measurement": "TD50", "setting": "females, site: ovary, lesion: adenoma, dosed 83 weeks, study length 104 weeks", "value": 217, "unit": "mg/kg/day"}, {"measurement": "TD50", "setting": "females, site: ovary, lesion: granulosa-cell carcinoma + granulosa-cell tumor, dosed 61 weeks, study length 61 weeks", "value": 370, "unit": "mg/kg/day"}, {"measurement": "TD50", "setting": "females, site: ovary, lesion: granulosa-cell carcinoma, dosed 61 weeks, study length 61 weeks", "value": 7580, "unit": "mg/kg/day"}, {"measurement": "TD50", "setting": "females, site: ovary, lesion: granulosa-cell tumor, benign + granulosa-cell tumor, bilateral, dosed 83 weeks, study length 104 weeks", "value": 98, "unit": "mg/kg/day"}, {"measurement": "TD50", "setting": "females, site: ovary, lesion: granulosa-cell tumor, benign + granulosa-cell tumor, malignant, dosed 83 weeks, study length 104 weeks", "value": 65.4, "unit": "mg/kg/day"}, {"measurement": "TD50", "setting": "females, site: ovary, lesion: granulosa-cell tumor, malignant, dosed 83 weeks, study length 104 weeks", "value": 198, "unit": "mg/kg/day"}, {"measurement": "TD50", "setting": "females, site: ovary, lesion: mixed tumor, benign, dosed 83 weeks, study length 104 weeks", "value": 202, "unit": "mg/kg/day"}, {"measurement": "TD50", "setting": "females, site: subcutaneous tissue, lesion: neurofibrosarcoma + sarcoma, dosed 83 weeks, study length 104 weeks", "value": 128, "unit": "mg/kg/day"}, {"measurement": "TD50", "setting": "females, site: subcutaneous tissue, lesion: sarcoma, dosed 83 weeks, study length 104 weeks", "value": 131, "unit": "mg/kg/day"}, {"measurement": "TD50", "setting": "males, site: Harderian gland, lesion: adenocarcinoma + adenocarcinoma, bilateral, dosed 13 weeks, study length 104 weeks", "value": 63.5, "unit": "mg/kg/day"}]}]}
